Assay results: patent publication US4568646A, “Preparation of antibiotic LL-D05139β from cultures of Glycomyces harbinensis, gen. nov., sp. nov” (American Cyanamid Company, priority 1985, dated 1986)

Columns and labels:
[1] = Stability in solution as a function of pH; format: physicochemical
[2] = test system: human lung carcinoma (LX-1); assay: Human tumor clonogenic (stem cell) assay, lung carcinoma; format: cell-based; settings: for T/C (treated/control colonies): Lung Carcinoma
Procedure: (§1) This test was performed essentially by the method of A. Hamburger and S. Salmon, Primary bioassay of human tumor stem cells., Science, 197: 461-463 (1977). Human colon carcinoma (CX-1) and human lung carcinoma (LX-1) tumors were obtained from the National Cancer Institute and propagated in athymic Balb/c mice. Freshly removed tumors were dispersed with trypsin 0.25% and 5×10^4 lung carcinoma cells or 1×10^5 colon carcinoma cells in soft (0.3%) agarose medium containing 0.1 ml of test drug were plated onto a solidified (0.5%) agarose base medium in 35 mm grided dishes. Cultures were incubated at 37° C. in a humidified 5% carbon dioxide in air atmosphere. Colonies were counted after 10-11 days. A compound is considered active if the treated/control (T/C) value is ≤30%, representing a 70% cell kill.

[3] = test system: human colon carcinoma (CX-1); assay: Human tumor clonogenic (stem cell) assay, colon carcinoma; format: cell-based
Procedure: as §1

For C[C@H](N)C(=O)N[C@@H](COC(=O)C=[N+]=[N-])C(=O)O [LL-D05139β, N-L-alanyl-L-serine diazoacetate], the Stability in solution ([1]; below pH 5.0) was “Decomposes rapidly”, the Stability in solution ([1]; weakly basic solutions) was “stable” and the “T/C (treated/control colonies)” value ([2]; concentration 2 mgc/ml) was 23.2%. The “T/C (treated/control colonies)” value ([2]; concentration 20 mgc/ml) was 17.8%, the “T/C (treated/control colonies)” value ([2]; concentration 200 mgc/ml) was 13.0% and the “Activity in human tumor clonogenic assay (active if T/C ≤30%)” value ([2]; human lung (LX-1) carcinoma, at 2.0 mcg/ml and higher doses) was “active”. For the same molecule, the “T/C (treated/control colonies)” value ([3]; Colon Carcinoma, concentration 2 mgc/ml) was 16.0% and the “Activity in human tumor clonogenic assay (active if T/C ≤30%)” value ([3]; colon (CX-1) carcinoma, at 2.0 mcg/ml and higher doses) was “active”.
